Laboratory results from US12447153B2, “HER2 mutation inhibitors” (Array BioPharma Inc., priority 2021, dated 2025).

Key:
[1] = target: ErbB2 WT (Homo sapiens (Human), UniProt P04626); test: ErbB Enzyme Assay (HTRF KinEASE-TK), Assay 2; format: biochemical
[2] = target: EGFR (Homo sapiens (Human), UniProt P00533); test: ErbB Enzyme Assay (HTRF KinEASE-TK), Assay 3; format: biochemical
[3] = target: ErbB2 with Exon 20 YVMA insertion (HER2-YVMA) (Homo sapiens (Human), UniProt P04626, INS775YVMA); test: Cellular Phosphorylation Assay, Assay 4 (constitutive ErbB2 phosphorylation, NIH 3T3 cells); format: cell-based
Sequence of ErbB2 with Exon 20 YVMA insertion (HER2-YVMA) (P04626 other isoform, or with tags, fused parts or gaps ins YVMA behind 775): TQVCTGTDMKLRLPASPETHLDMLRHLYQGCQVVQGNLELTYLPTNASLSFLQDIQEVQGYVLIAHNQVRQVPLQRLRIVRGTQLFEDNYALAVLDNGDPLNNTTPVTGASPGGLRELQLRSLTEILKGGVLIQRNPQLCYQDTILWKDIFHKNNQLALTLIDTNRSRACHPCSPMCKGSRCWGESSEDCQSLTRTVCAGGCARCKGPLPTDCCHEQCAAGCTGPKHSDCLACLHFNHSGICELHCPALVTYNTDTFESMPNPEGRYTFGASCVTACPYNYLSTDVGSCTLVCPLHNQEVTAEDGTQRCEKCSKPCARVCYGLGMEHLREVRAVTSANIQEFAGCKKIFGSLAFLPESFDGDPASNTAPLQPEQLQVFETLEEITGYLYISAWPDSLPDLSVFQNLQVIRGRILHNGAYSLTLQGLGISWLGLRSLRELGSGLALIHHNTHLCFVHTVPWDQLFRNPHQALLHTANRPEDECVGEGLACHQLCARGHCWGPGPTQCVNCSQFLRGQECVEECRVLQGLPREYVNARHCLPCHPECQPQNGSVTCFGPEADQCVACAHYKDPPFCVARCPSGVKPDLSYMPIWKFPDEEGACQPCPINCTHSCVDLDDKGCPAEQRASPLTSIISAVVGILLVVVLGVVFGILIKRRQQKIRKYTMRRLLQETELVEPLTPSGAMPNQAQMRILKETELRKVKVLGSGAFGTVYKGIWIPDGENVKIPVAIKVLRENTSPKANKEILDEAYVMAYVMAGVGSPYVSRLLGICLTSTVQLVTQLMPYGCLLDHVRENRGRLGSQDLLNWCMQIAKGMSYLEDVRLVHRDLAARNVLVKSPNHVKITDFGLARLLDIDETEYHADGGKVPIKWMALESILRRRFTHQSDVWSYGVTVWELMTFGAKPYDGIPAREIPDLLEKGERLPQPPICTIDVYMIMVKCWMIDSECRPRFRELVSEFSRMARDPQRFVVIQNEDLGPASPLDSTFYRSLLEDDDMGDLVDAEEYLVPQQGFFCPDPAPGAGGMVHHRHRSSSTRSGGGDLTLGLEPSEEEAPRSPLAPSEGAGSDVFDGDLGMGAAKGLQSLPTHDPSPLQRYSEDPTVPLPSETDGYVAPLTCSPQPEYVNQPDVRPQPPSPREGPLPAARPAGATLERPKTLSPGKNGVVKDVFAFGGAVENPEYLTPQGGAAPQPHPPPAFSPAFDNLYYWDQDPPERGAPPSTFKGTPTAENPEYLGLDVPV

[4] = target: EGFR wild type (EGFR WT) (Homo sapiens (Human), UniProt P00533); test: Cellular Phosphorylation Assay, Assay 5 (EGF-stimulated EGFR phosphorylation, NIH 3T3 cells); format: cell-based
Sequence of EGFR wild type (EGFR WT) (P00533 25-1210): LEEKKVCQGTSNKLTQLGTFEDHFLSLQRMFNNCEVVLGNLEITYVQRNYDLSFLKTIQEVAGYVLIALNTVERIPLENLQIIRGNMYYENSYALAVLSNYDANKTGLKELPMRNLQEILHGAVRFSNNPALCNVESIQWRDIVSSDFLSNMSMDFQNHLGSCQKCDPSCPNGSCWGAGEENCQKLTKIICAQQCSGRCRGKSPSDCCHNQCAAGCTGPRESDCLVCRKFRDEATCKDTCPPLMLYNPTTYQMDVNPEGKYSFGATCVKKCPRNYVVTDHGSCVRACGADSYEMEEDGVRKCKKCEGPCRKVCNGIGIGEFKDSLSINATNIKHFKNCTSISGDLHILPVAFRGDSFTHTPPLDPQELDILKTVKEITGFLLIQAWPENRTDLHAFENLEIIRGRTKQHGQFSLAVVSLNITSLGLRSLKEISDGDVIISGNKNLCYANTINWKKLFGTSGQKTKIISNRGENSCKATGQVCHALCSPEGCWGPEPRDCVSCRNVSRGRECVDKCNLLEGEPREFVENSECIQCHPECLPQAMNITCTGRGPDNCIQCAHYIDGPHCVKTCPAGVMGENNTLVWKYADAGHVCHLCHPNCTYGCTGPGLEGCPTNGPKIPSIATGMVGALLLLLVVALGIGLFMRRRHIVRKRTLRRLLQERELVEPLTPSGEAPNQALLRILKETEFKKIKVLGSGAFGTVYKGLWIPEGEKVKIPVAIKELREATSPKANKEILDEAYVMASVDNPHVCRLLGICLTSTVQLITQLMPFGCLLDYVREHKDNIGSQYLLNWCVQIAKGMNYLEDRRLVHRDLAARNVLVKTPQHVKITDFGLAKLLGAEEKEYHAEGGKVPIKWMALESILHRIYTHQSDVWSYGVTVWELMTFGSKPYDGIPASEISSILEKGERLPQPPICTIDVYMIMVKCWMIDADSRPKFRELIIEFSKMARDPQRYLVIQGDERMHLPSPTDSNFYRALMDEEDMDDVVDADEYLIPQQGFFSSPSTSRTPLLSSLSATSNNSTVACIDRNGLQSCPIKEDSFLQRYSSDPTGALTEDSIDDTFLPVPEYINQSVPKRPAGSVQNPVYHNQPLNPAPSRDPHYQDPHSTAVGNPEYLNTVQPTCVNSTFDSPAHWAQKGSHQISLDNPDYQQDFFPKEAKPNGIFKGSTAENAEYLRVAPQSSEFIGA

[5] = tested on: BCRP; test: BCRP MDCKII efflux assay (Assay 7); format: in vitro ADME; conditions: dog; efflux ratio Papp(B-A)/Papp(A-B), BCRP MDCKII cells; read-out: Assay 7 Pe Ratio
Protocol: (§1) Assay conditions included with and without the BCRP-specific inhibitor, KO143, at a concentration of 0.3 μM to ascertain the contribution of BCRP to the efflux value of the test compound.
(§2) Final organic concentration in the assay was 1%.

[6] = target: MDR1 (P-gp) (Homo sapiens (Human), UniProt P08183); test: in vitro; conditions: pig, LLC-PK1
[7] = target: BCRP transfected MDCKII cells (Homo sapiens (Human), UniProt Q9UNQ0); test: BCRP MDCKII efflux assay (Assay 7); format: in vitro ADME; conditions: efflux ratio Papp(B-A)/Papp(A-B)
Protocol: as §1, §2

[8] = target: MDR1 (P-gp) transfected LLC-PK1 cells (Homo sapiens (Human), UniProt P08183)
[9] = target: BCRP (Homo sapiens (Human), UniProt Q9UNQ0); test: BCRP MDCKII efflux assay (Assay 7); format: in vitro ADME; conditions: dog; efflux ratio Papp(B-A)/Papp(A-B), BCRP MDCKII cells; read-out: Assay 7 Pe Ratio
Protocol: as §1, §2

[10] = EGF-stimulated EGFR WT phosphorylation
[11] = cellular ErbB2 YVMA phosphorylation
[12] = cellular EGFR WT phosphorylation, EGF-stimulated

Sequence of ErbB2 WT (P04626 23-1255): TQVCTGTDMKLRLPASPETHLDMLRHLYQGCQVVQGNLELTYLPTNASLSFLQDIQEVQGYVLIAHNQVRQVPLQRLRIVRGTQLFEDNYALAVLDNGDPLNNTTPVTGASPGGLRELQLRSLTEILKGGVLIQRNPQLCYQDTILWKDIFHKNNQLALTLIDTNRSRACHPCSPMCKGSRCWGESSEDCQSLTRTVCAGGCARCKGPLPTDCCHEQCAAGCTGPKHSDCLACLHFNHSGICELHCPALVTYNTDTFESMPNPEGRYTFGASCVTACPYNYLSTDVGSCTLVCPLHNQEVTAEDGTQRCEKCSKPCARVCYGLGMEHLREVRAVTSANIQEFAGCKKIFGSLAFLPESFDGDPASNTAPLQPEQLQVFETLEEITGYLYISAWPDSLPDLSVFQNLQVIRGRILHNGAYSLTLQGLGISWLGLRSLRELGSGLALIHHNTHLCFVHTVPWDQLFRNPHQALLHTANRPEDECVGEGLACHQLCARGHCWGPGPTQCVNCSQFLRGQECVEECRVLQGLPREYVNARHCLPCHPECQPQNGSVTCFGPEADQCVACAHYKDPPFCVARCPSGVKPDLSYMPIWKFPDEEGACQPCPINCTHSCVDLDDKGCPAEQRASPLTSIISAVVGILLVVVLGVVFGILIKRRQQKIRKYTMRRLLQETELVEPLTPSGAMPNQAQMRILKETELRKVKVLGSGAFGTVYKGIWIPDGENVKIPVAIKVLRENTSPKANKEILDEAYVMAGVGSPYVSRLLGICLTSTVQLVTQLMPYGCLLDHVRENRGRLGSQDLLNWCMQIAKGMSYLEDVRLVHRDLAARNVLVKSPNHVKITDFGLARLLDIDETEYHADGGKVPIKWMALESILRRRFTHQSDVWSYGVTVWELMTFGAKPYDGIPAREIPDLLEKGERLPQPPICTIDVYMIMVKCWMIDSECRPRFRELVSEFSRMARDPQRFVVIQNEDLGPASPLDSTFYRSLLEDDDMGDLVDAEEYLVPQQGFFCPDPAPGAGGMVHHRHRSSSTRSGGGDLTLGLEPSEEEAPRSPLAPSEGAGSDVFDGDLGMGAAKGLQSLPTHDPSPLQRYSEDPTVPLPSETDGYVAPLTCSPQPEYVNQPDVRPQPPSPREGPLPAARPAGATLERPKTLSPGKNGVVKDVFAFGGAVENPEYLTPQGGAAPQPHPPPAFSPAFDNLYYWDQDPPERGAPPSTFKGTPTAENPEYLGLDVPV
Sequence of EGFR (P00533 25-1210): as the sequence (P00533 25-1210) above

| SMILES | IC50 ([1]; ErbB2 WT enzyme) [nM] | IC50 ([2]; EGFR enzyme) [nM] | IC50 ([3]; ErbB2 YVMA phosphorylation) [nM] | IC50 [4, 10] [nM] | efflux ratio at 2 h, 1 µM [5] | efflux ratio at 2 h, 1 µM [6] | efflux ratio at 2 h, 1 µM [9] | Assay 7 Pe Ratio [7] | efflux ratio [8] | IC50 ([1]; ErbB2 WT enzyme assay) [nM] | IC50 ([2]; EGFR enzyme assay) [nM] | IC50 [3, 11] [nM] | IC50 [4, 12] [nM] |
| --- | --- | --- | --- | --- | --- | --- | --- | --- | --- | --- | --- | --- | --- |
| C=CC(=O)N1[C@@H]2CC[C@H]1C[C@@H](c1ccc3ncnc(Nc4ccc(Oc5cnc6c(c5)ncn6C)c(C)c4F)c3n1)C2 [Example 227, 1-((1R,3r,5S)-3-(4-((2-fluoro-3-methyl-4-((3-methyl-3H-imidazo[4,5-b]pyridin-6-yl)oxy)phenyl)amino)pyrido[3,2-d]pyrimidin-6-yl)-8-azabicyclo[3.2.1]octan-8-yl)prop-2-en-1-one] | 138 | 3790 | 26.8 | 5000 |  |  |  | 5.5 | 1.2 |  |  |  |  |
| C=CC(=O)N1CC2CCC(C1)N2c1ccc2ncnc(Nc3cc(C)c(Oc4ccn5ncnc5c4)cc3F)c2n1 [Example 454] |  |  |  |  | 0.6 | 0.8 |  |  |  | 35.6 | 1180 | 14.1 | 680 |
| C=CC(=O)N1[C@@H]2CC[C@H]1[C@H](c1ccc3ncnc(Nc4ccc(Oc5ccn6ncnc6c5)c(C)c4F)c3n1)C2 (single isomer, unassigned) [Example 228] | 130 | 4550 | 33.6 | ≥ 5000 |  | 0.8 | 3.3 |  |  |  |  |  |  |
| C=CC(=O)N1CC[C@H]2C[C@H](c3ccc4ncnc(Nc5cc(C)c(Oc6ccn7ncnc7c6)cc5F)c4n3)C[C@H]21 (racemic) [Example 205, rac-1-((3aR,5S,6aR)-5-(4-((4-([1,2,4]triazolo[1,5-a]pyridin-7-yloxy)-2-fluoro-5-methylphenyl)amino)pyrido[3,2-d]pyrimidin-6-yl)hexahydrocyclopenta[b]pyrrol-1(2H)-yl)prop-2-en-1-one] | 58.7 | 2420 | 24 | 2560 |  | 1.2 | 4.5 |  |  |  |  |  |  |

Continued, in another order:

| IC50 ([1]; ErbB2 WT enzyme) [nM] | IC50 ([2]; EGFR enzyme) [nM] | IC50 ([3]; ErbB2 YVMA phosphorylation) [nM] | IC50 [4, 10] [nM] | efflux ratio at 2 h, 1 µM [5] | efflux ratio at 2 h, 1 µM [6] | efflux ratio at 2 h, 1 µM [9] | SMILES | Assay 7 Pe Ratio [7] | efflux ratio [8] | IC50 ([1]; ErbB2 WT enzyme assay) [nM] | IC50 ([2]; EGFR enzyme assay) [nM] | IC50 [3, 11] [nM] | IC50 [4, 12] [nM] |
| --- | --- | --- | --- | --- | --- | --- | --- | --- | --- | --- | --- | --- | --- |
| 13.3 | 401 | 16.7 | 1450 | 0.6 | 1.1 |  | C=CC(=O)N1C[C@@H]2C[C@H]1C[C@H]2c1ccc2ncnc(Nc3ccc(Oc4ccc5c(c4)ncn5C)c(C)c3F)c2n1 (racemic) [Example 203, rac-1-((1S,4R,5R)-5-(4-((2-fluoro-3-methyl-4-((1-methyl-1H-benzo[d]imidazol-5-yl)oxy)phenyl)amino)pyrido[3,2-d]pyrimidin-6-yl)-2-azabicyclo[2.2.1]heptan-2-yl)prop-2-en-1-one] |  |  |  |  |  |  |
| 25 | 650 | 11.7 | 1070 | 0.6 | 1.2 |  | C=CC(=O)N1CCC[C@@H](c2ccc3ncnc(Nc4ccc(Oc5ccc6c(c5)ncn6C)c(C)c4F)c3n2)C1 (racemic) [Example 144, rac-(R)-1-(3-(4-((2-fluoro-3-methyl-4-((1-methyl-1H-benzo[d]imidazol-5-yl)oxy)phenyl)amino)pyrido[3,2-d]pyrimidin-6-yl)piperidin-1-yl)prop-2-en-1-one] |  |  |  |  |  |  |
|  |  |  |  |  | 1.5 | 4.8 | C=CC(=O)N1C[C@@H]2C[C@H]1CN(c1ccc3ncnc(Nc4ccc(Oc5ccn6ncnc6c5)c(C)c4F)c3n1)C2 [Example 251] |  |  | 494 | ≥ 10000 | 27.3 | ≥ 5000 |
